Reference: ChEMBL document CHEMBL6092183, “Rapid Affinity and Microsomal Stability Ranking of Crude Mixture Libraries of Histone Deacetylase Inhibitors” (ACS Med Chem Lett, 2024)
Values joined by “and” are separate entries in the source; they are usually repeats but may differ in a detail not shown here. Identical values can stand only once.

Experiments:
in vitro = settings: rat, microsomes
Histone deacetylase 2 = Histone deacetylase 2 (Homo sapiens, UniProt Q92769); experiment: Inhibition of HDAC2 (unknown origin) incubated for 30 mins by ALIS assay
[1] = human, microsomes
Description: Metabolic stability in human liver microsomes

Sequence of Histone deacetylase 2 (Q92769 whole entry): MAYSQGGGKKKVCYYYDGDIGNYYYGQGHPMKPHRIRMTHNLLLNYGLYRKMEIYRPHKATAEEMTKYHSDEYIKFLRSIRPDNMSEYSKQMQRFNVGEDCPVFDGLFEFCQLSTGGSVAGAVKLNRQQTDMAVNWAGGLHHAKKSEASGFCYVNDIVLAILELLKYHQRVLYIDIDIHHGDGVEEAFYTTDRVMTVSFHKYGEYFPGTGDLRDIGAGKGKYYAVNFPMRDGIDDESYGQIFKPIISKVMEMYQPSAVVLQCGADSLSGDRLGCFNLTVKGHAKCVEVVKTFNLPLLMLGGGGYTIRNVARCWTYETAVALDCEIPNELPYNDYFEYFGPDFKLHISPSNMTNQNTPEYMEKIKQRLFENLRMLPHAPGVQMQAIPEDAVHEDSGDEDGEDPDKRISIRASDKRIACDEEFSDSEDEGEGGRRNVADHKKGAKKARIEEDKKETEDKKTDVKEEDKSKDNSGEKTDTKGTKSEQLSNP

SMILES	microsomal CLint at 0.75 h, 0.3 µM (in vitro)	IC50 (Histone deacetylase 2)	Stability [1]
CCCC[C@H](NC(=O)[C@H](CN)c1c[nH]c2ccc(OC)cc12)c1nc(-c2ccc(-c3ccn(C)n3)cc2)c[nH]1	83.4 µL/min/mg		
CCC(=O)CCCCC[C@H](NC(=O)CC1CN2CCC1CC2)c1ncc(-c2ccccc2)[nH]1 (some centres not stated)	91.8 µL/min/mg	211 nM	
CCC(=O)CCCCC[C@H](NC(=O)C1C2COCC21)c1ncc(-c2ccccc2)[nH]1 (some centres not stated)	75.7 µL/min/mg	295 nM	Stable
CCCC[C@H](NC(=O)[C@H](CN)c1c[nH]c2ccc(OC)cc12)c1nc(-c2ccc(C3CC(C)(C)C3)cc2)c[nH]1	110 µL/min/mg		
CCC(=O)CCCCC[C@H](NC(=O)C1CC2CCN1CC2)c1ncc(-c2ccccc2)[nH]1 (some centres not stated)	144 µL/min/mg	96.8 nM	
CCCC[C@H](NC(=O)[C@H](CN)c1c[nH]c2ccc(OC)cc12)c1nc(-c2ccc(OC)cc2)c[nH]1	164 µL/min/mg		Stable
CCC(=O)CCCCC[C@H](NC(=O)C1CC12CN(C(C)=O)C2)c1ncc(-c2ccccc2)[nH]1 (some centres not stated)	66.8 µL/min/mg	423 nM	
CCC(=O)CCCCC[C@H](NC(=O)C1CC12CCCC2)c1ncc(-c2ccccc2)[nH]1 (some centres not stated)	3510 µL/min/mg		
CCCC[C@H](NC(=O)[C@H](CN)c1c[nH]c2ccc(OC)cc12)c1nc(-c2ccc3c(C)noc3c2)c[nH]1	192 µL/min/mg		
CCCC[C@H](NC(=O)[C@H](CN)c1c[nH]c2ccc(OC)cc12)c1nc(-c2ccn(C)c(=O)c2)c[nH]1	9.9 µL/min/mg	428 nM	
CCC(=O)CCCCC[C@H](NC(=O)C1CN2CCC1CC2)c1ncc(-c2ccccc2)[nH]1 (some centres not stated)	134 µL/min/mg	146 nM	
CCCC[C@H](NC(=O)[C@H](CN)c1c[nH]c2ccc(OC)cc12)c1nc(-c2ccc(C#N)cc2)c[nH]1	68.9 µL/min/mg		Stable
CCCC[C@H](NC(=O)[C@H](CN)c1c[nH]c2ccc(OC)cc12)c1nc(-c2cc(C)cc(C)c2)c[nH]1	51 µL/min/mg		
CCCC[C@H](NC(=O)[C@H](CN)c1c[nH]c2ccc(OC)cc12)c1nc(-c2cccc(C)c2)c[nH]1	195 µL/min/mg		

Results, then the molecule that gave them:

microsomal CLint at 0.75 h, 0.3 µM (in vitro)	IC50 (Histone deacetylase 2)	Stability [1]	SMILES
70.1 µL/min/mg			O=C(NCCCC[C@H](NC(=O)C1CC12CCNCC2)c1ncc(-c2ccc3ccccc3c2)[nH]1)c1c(O)cccc1F (some centres not stated)
310 µL/min/mg	64.5 nM		CC(=O)N1CC2(CC2C(=O)N[C@@H](CCCCNC(=O)c2c(O)cccc2F)c2ncc(-c3ccc4ccccc4c3)[nH]2)C1 (some centres not stated)
57.5 µL/min/mg	37 nM		O=C(NCCCC[C@H](NC(=O)C1C2CNCC21)c1ncc(-c2ccc3ccccc3c2)[nH]1)c1c(O)cccc1F (some centres not stated)
754 µL/min/mg			O=C(NCCCC[C@H](NC(=O)C1C2CCNC21)c1ncc(-c2ccc3ccccc3c2)[nH]1)c1c(O)cccc1F (some centres not stated)
984 µL/min/mg	432 nM		O=C(NCCCC[C@H](NC(=O)C1CC12CCCCC2)c1ncc(-c2ccc3ccccc3c2)[nH]1)c1c(O)cccc1F (some centres not stated)
811 µL/min/mg	441 nM and 144 nM		O=C(NCCCC[C@H](NC(=O)C1CC12CCCC2)c1ncc(-c2ccc3ccccc3c2)[nH]1)c1c(O)cccc1F (some centres not stated)
1150 µL/min/mg	45.4 nM and 89.8 nM		O=C(NCCCC[C@H](NC(=O)C1C2COCC21)c1ncc(-c2ccc3ccccc3c2)[nH]1)c1c(O)cccc1F (some centres not stated)
693 µL/min/mg	48 nM and 12 nM		CS(=O)(=O)N1CC2(CC2C(=O)N[C@@H](CCCCNC(=O)c2c(O)cccc2F)c2ncc(-c3ccc4ccccc4c3)[nH]2)C1 (some centres not stated)
11.8 µL/min/mg	112 nM		CCC(=O)CCCCC[C@H](NC(=O)C1C2CNCC21)c1ncc(-c2ccccc2)[nH]1 (some centres not stated)
1240 µL/min/mg	19.1 nM		O=C(NCCCC[C@H](NC(=O)C1CN2CCC1CC2)c1ncc(-c2ccc3ccccc3c2)[nH]1)c1c(O)cccc1F (some centres not stated)
805 µL/min/mg			O=C(NCCCC[C@H](NC(=O)C1CCCCC12CC2)c1ncc(-c2ccc3ccccc3c2)[nH]1)c1c(O)cccc1F (some centres not stated)
